Laboratory results taken from PubChem BioAssay AID1817 (Sanford-Burnham Center for Chemical Genomics, 2009).
Calls of active or inactive are those of the source.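 How the source made its calls: active means displacement of at least 50% at 20 µM, with a fluorescence ratio check between 0.3 and a set limit; inactive means the rest.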

Biological target: E3 ubiquitin-protein ligase SIAH1 (Homo sapiens) (UniProt Q8IUQ4)
Assay: Siah-1 peptide-binding antagonists, primary screen, biochemical, fluorescence polarization, rhodamine-plectin, uHTS (AID 1817)
Settings: Siah-1 / rhodamine-plectin peptide fluorescence polarization

E3 ubiquitin-protein ligase SIAH1 (Homo sapiens), sequence (Q8IUQ4 whole entry, looked up): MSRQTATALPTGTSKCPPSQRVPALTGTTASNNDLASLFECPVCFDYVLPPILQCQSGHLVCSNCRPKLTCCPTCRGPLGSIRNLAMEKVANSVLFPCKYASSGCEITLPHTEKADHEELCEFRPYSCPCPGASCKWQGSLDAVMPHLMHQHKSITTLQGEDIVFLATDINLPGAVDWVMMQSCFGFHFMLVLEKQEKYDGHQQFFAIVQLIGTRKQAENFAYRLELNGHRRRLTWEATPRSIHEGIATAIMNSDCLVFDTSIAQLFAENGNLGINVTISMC

Row | SMILES | IC50
1 | Cc1ccccc1-c1nc2c3ccccc3nc(=S)n2[nH]1 | > 200 µM (inactive)
2 | O=C(Nc1cc([N+](=O)[O-])ccc1N1CCOCC1)c1cccs1 | > 200 µM (inactive)
3 | COC(=O)C1CC(=O)N(c2ccc(OCc3ccccc3Cl)cc2)C1 (stereo not drawn) | > 200 µM (inactive)
4 | CCn1c(O)c(C=Nc2ccc(N3CCOCC3)cc2)c(=O)n(CC)c1=S | > 200 µM (inactive)
5 | COc1ccc(-c2cnnn2-c2ccc(N)cc2)cc1OC | > 200 µM (inactive)
6 | Cc1ccc(OCCCN2CCOCC2)cc1 | > 200 µM (inactive)
7 | N#CC1C=Cc2ccccc2N1C(=O)c1ccccc1 (stereo not drawn) | > 200 µM (inactive)
8 | Cc1cc(C)n2ncc(C(=O)Nc3ccc4c(c3)OCO4)c2n1 | > 200 µM (inactive)
9 | CC(C)COc1ccc(-c2nn(-c3ccccc3)cc2/C=C2/SC(=S)N(CC(=O)O)C2=O)cc1 | > 200 µM (inactive)
10 | Cc1cc2cc(CNC(=O)c3ccc(S(=O)(=O)N4CCCCC4)cc3)ccc2n1C | > 200 µM (inactive)
11 | Cc1cc(Cl)ccc1NC(=O)CN1CCC(C(O)(c2ccccc2)c2ccccc2)CC1 | > 200 µM (inactive)
12 | COc1cc(CNc2ccc(O)cc2)cc(Br)c1OCc1ccccc1F | inactive
13 | COC/C=C/C1=CC2=CC(=O)C(C)(OC(=O)c3ccco3)C(=O)C2=CO1 (stereo not drawn) | inactive
14 | COc1cc(CC(=O)NCc2ccc3c(c2)OCO3)cc(OC)c1OC | > 200 µM (inactive)
15 | CSc1ccccc1C(=O)NC(C)c1ccc(-n2ccnc2)cc1 (stereo not drawn) | > 200 µM (inactive)
16 | Cc1ccn2c(C(=O)CSc3ccc(Cl)cc3Cl)c(C)nc2c1 | > 200 µM (inactive)
17 | CN(C)c1cccc2c(C=C(C#N)C#N)ccc(N(C)C)c12 | > 200 µM (inactive)
18 | CCCCn1c(NS(=O)(=O)c2ccc(C)cc2)c(S(=O)(=O)c2ccccc2)c2nc3ccccc3nc21 | > 200 µM (inactive)
19 | O=C(NCc1c(F)cccc1F)c1cc(COc2c(F)cccc2F)on1 | > 200 µM (inactive)
20 | O=c1[nH]n(-c2ccc([N+](=O)[O-])cc2)c(=O)c2ccccc12 | 15.7 µM
21 | CCN(CC)CCOC(=O)c1ccc(N/C=C(/C#N)c2nc(-c3cc4ccccc4oc3=O)cs2)cc1 | 11.2 µM
22 | Cc1ccccc1NC(=O)CN1C(=O)N/C(=C\c2ccccc2OCc2ccc(C(=O)O)cc2)C1=O | 11.5 µM
23 | Oc1c(Br)cc(Br)cc1CNc1ccc(F)cc1 | > 200 µM (inactive)
24 | CC(NC(=O)Nc1ccc(O)cc1)(C(F)(F)F)C(F)(F)F | > 200 µM (inactive)
25 | CC1=CC(C)(C)N2C(=O)C(=Nc3ccc(O)cc3)c3cccc1c32 | inactive

Row | SMILES | IC50
26 | CCN(CC)CCOC(=O)c1ccc(N/C=C(/C#N)c2nc(-c3ccc(OC)c(OC)c3)cs2)cc1 | 12.5 µM
27 | CC1CCCCC1NC(=O)CCS(=O)(=O)c1ccc2c(c1)NC(=O)CO2 (stereo not drawn) | > 200 µM (inactive)
28 | O=C(Nc1ccc(S(=O)(=O)N2CCOCC2)cc1)c1ccc(=O)[nH]c1 | 20.5 µM
29 | CC(=O)c1ccc(NC(=O)CC2Nc3cccc4cccc(c34)NC2=O)cc1 (stereo not drawn) | > 200 µM (inactive)
30 | O=C(/C=C/c1ccco1)OCc1nnc(-c2ccccc2)o1 | > 200 µM (inactive)
31 | O=C1C=C(NCc2ccccc2)c2ccccc2C1=O | > 200 µM (inactive)
32 | O=C1CCCC(O)=C1N=Nc1ccc(C(=O)O)cc1 | > 200 µM (inactive)
33 | O=c1[nH]c(-c2ccc(F)cc2)nc2c1sc(=S)n2-c1ccccc1 | 19.6 µM
34 | O=C(Nc1ccc(Cl)cc1)c1ccc(S(=O)(=O)N2CCOCC2)cc1 | > 200 µM (inactive)
35 | COCCCNc1c2c3c(cccc3[nH]c1=O)C(=O)c1ccccc1-2 | > 200 µM (inactive)
36 | O=C(Nc1nc(-c2cc3ccccc3oc2=O)cs1)c1ccco1 | > 200 µM (inactive)
37 | O=C(CCn1ccc2ccccc21)NC1CCCc2ccccc21 (stereo not drawn) | > 200 µM (inactive)
38 | O=C(O)CCCCN1C(=O)/C(=C\c2ccc(OCc3ccccc3)c(OCc3ccccc3)c2)SC1=S | > 200 µM (inactive)
39 | O=C(Nc1ccc(Br)cc1)c1ccc(N2C(=O)C3CC=CCC3C2=O)cc1 (stereo not drawn) | 18.6 µM
40 | Nc1ccc(O)c2c1C(=O)c1ccccc1C2=O | 1.52 µM
41 | Cc1ccc(NC(=O)CCC(=O)NNC(=O)c2ccccc2[N+](=O)[O-])c(C)c1 | > 200 µM (inactive)
42 | O=C(Nc1ccc(Oc2ccsc2C(=O)O)cc1)c1ccccc1F | > 200 µM (inactive)
43 | CCCCn1c(NC(=O)c2ccco2)c(S(=O)(=O)c2ccc(C)cc2)c2nc3ccccc3nc21 | > 200 µM (inactive)
44 | CCNc1ccc(C(=O)O)cc1N | inactive
45 | O=C(O)CCN1C(=O)/C(=C/c2cn(-c3ccccc3)nc2-c2cccs2)SC1=S | > 200 µM (inactive)
46 | CC12CCC(C(=O)NCc3ccc(Cl)cc3)(OC1=O)C2(C)C (stereo not drawn) | > 200 µM (inactive)
47 | CCOC(=O)C1(C)C=C(Nc2ccc(O)cc2)C(=O)N1c1ccc(O)cc1 (stereo not drawn) | > 200 µM (inactive)
48 | C[C@]12CCC3C(CC=C4C[C@@H](O)CC[C@@]43C)C1CCC2[C@]1(C)CCC(=O)O1 (stereo partly drawn) | > 200 µM (inactive)
49 | Cc1cc(C)n(-c2ccc(Cl)c(C(=O)Nc3cc(C(F)(F)F)ccc3Cl)n2)n1 | > 200 µM (inactive)
50 | O=S(=O)(Nc1c(S(=O)(=O)c2ccccc2)c2nc3ccccc3nc2n1C1CCCCC1)c1ccccc1 | > 200 µM (inactive)

Row | SMILES | IC50
51 | Cc1cc(C)c(C#N)c(Nc2ccccc2C)n1 | > 200 µM (inactive)
52 | Oc1ccc(N=Cc2ccc(OCc3ccccc3)cc2)cc1 | inactive
53 | COc1cccc2cc(C(=O)N3CCc4ccccc43)c(=O)oc12 | > 200 µM (inactive)
54 | COC(=O)c1cc(NC(=O)c2ccccc2)c(=O)oc1/C=C/Nc1ccc(Oc2ccccc2)cc1 | > 200 µM (inactive)
55 | Cc1ccc2c(c1)N(CC(=O)NCCc1ccc(Cl)cc1)C(=O)c1cccnc1O2 | > 200 µM (inactive)
56 | O=C(NCc1ccc(Cl)cc1)c1cc(-c2cccs2)on1 | 8.13 µM
57 | CCCCn1c(NS(=O)(=O)c2ccccc2)c(S(=O)(=O)c2ccc(C)cc2)c2nc3ccccc3nc21 | > 200 µM (inactive)
58 | COc1ccc(CCNC(=O)CCC(=O)N2CCOc3ccc(C)cc32)cc1OC | > 200 µM (inactive)
59 | CN1C(=O)NC(c2ccccc2[N+](=O)[O-])C2=C1CCCC2=O (stereo not drawn) | 10.3 µM
60 | COc1ccc(C(C(=O)NCc2ccccc2)N(Cc2ccco2)C(=O)c2cnccn2)cc1 (stereo not drawn) | > 200 µM (inactive)
61 | CCOC(=O)c1c(C)[nH]c2c1-c1ccccc1C(=O)C2=O | > 200 µM (inactive)
62 | COCCOC(=O)c1sc(=S)n(CCOC)c1N | 8.07 µM
63 | COCCn1nnnc1C(c1cc2ccc(OC)cc2[nH]c1=O)N1CCc2ccccc2C1 (stereo not drawn) | > 200 µM (inactive)
64 | CCC1=Nc2cc(C(=O)O)ccc2Sc2ccccc21 | > 200 µM (inactive)
65 | COc1ccc(CCNC(=O)c2ccc(S(=O)(=O)N(C)c3ccccc3)cc2)cc1OC | > 200 µM (inactive)
66 | Oc1ccc(N=Cc2sc3ccccc3c2Cl)cc1 | inactive
67 | O=C(Nc1ccc(Cl)cc1)OCc1cn(-c2ccccc2)nn1 | > 200 µM (inactive)
68 | C[N+]1(CCNC(=O)/C=N/O)CCCCC1 | > 200 µM (inactive)
69 | CS(=O)(=O)N1CCN(c2ccc([N+](=O)[O-])c(SCc3ccco3)c2)CC1 | > 200 µM (inactive)
70 | CCOc1ccccc1CNc1ccc(O)cc1 | inactive
71 | O=C(CC1Nc2cccc3cccc(c23)NC1=O)Nc1ccccc1 (stereo not drawn) | > 200 µM (inactive)
72 | Cc1ccc(CNc2ccc(O)cc2)cc1 | inactive
73 | CC1CCN(S(=O)(=O)c2ccc3c(c2)c(=O)c(C(=O)NCc2ccccc2Cl)cn3C)CC1 | > 200 µM (inactive)
74 | Cc1c(Cc2ccccc2)c(=O)oc2c(C)c(OCC(=O)N[C@@H](Cc3ccccc3)C(=O)O)ccc12 | inactive
75 | C=CCc1cccc2cc(C(=O)Nc3ccc(CC(=O)O)cc3)c(=O)oc12 | 17.3 µM

Row | SMILES | IC50
76 | O=C(O)c1cc(O)c2c(c1)C(=O)c1cccc(O)c1C2=O | inactive
77 | O=S(=O)(O)c1cc(O)c2c(O)c(N=Nc3cc(Cl)ccc3O)c(S(=O)(=O)O)cc2c1 | 5.13 µM
78 | CCOc1cc(/C=C(\C#N)C(=O)Nc2ccccc2C(=O)O)ccc1OC(=O)c1ccc(C)cc1 | > 200 µM (inactive)
79 | CC(C)(C)c1ccc(C(CC(=O)O)NC(=O)Cc2ccc(F)cc2)cc1 (stereo not drawn) | 25.6 µM
80 | c1ccc(C(c2ccccc2)N2CCN(C(c3ccccn3)c3nnnn3C3CCCC3)CC2)cc1 (stereo not drawn) | > 200 µM (inactive)
81 | CCCCn1c(NC(=O)c2ccc(Br)o2)c(C(=O)OCC)c2nc3ccccc3nc21 | > 200 µM (inactive)
82 | COCCCn1c(N)c(C(=O)NCc2ccco2)c2nc3ccccc3nc21 | > 200 µM (inactive)
83 | CN(C)CCOC(=O)CCc1ccccc1 | > 200 µM (inactive)
84 | O=C(O)c1cc(Cl)c(Cl)cc1C(=O)Nc1cccc2cccnc12 | > 200 µM (inactive)
85 | NS(=O)(=O)c1ccc(NS(=O)(=O)c2ccc(NC(=O)c3ccc(-c4ccccc4)cc3)cc2)cc1 | 1.56 µM
86 | CC(=O)c1ccc(S(=O)(=O)Nc2ccc(-c3ccc4nnc(C)n4n3)cc2)cc1 | > 200 µM (inactive)
87 | N#Cc1c(NC(=O)c2ccc(Br)o2)n(-c2ccccc2)c2nc3ccccc3nc12 | > 200 µM (inactive)
88 | O=C(O)CCCNc1cc(N2CCN(C(=O)c3ccco3)CC2)c2noc3c2c1C(=O)c1ccccc1-3 | 4.21 µM
89 | CCCCn1c(NS(=O)(=O)c2ccccc2)c(C(=O)OCC)c2nc3ccccc3nc21 | > 200 µM (inactive)
90 | O=c1[nH]c2ccc(S(=O)(=O)N3CCCCC3)cc2s1 | > 200 µM (inactive)
91 | O=S(=O)(Nc1cc2nc3ccccc3nc2n1Cc1ccccc1)c1ccc(Cl)cc1 | > 200 µM (inactive)
92 | CCCCNc1nnc(Cc2ccc(Cl)cc2)c(=O)[nH]1 | > 200 µM (inactive)
93 | CSc1n[nH]c(NCc2ccc(Cl)cc2)n1 | > 200 µM (inactive)
94 | C=C(C)Cn1c(N2CCN(CC)CC2)nc2c1c(=O)[nH]c(=O)n2C | > 200 µM (inactive)
95 | CC1=C(C#N)c2nc(N)c(C#N)c(C)c2/C1=C\c1ccc(-c2ccccc2C(=O)O)o1 | 20.6 µM
96 | O=C(Nc1cccc(Oc2ccc(C(=O)O)c(C(=O)O)c2)c1)c1ccc(-c2ccccc2)cc1 | 8.53 µM
97 | COc1ccc(CNC(=S)Nc2cc(OC)ccc2OC)cc1 | > 200 µM (inactive)
98 | Cc1ccc(S(=O)(=O)N2CCC(=O)N(C(COCc3cccc(C)c3)Cc3ccccc3)CC2)cc1 (stereo not drawn) | > 200 µM (inactive)
